Assay [1] concerns LASCPC-01 cells. Kind of assay: Cell growth inhibition, neuroendocrine prostate cancer line LASCPC-01 (Cell Titer Glo, day 7). It counts as cell-based. The text has this:
Among other things, provided technologies are useful for treating various diseases, disorders, or conditions. For example, in some embodiments, provided technologies are useful for treating cancer as confirmed in the present Example. […] In some embodiments, provided technologies can inhibit cell proliferation. In some embodiments, the present disclosure provides technologies for assessing various technologies, e.g., compounds, compositions, or methods. Among other things, the present Example provides technologies, e.g., cell growth inhibition assay, for assessing various technologies. […] In some embodiments, the following cell growth inhibition methods are utilized to assess provided technologies.
Neuroendocrine prostate cancer: Neuroendocrine prostate cancer line LASCPC-01 cells were cultured in DMEM F12 media with 5% FBS, 1% Penicillin/Streptomycin and HITES supplement (Hydrocortisone, Insulin, Transferrin, Estradiol and Sodium Selenite). Cells were plated at 1,425 cells/well of a 96 well plate. Compound and media were replenished every two days and at day 7 cell viability was assayed using Cell Titer Glo following manufacturer's instructions.
In some assessments, for cell growth inhibition, cells, e.g., MOLM13, NCI-H1048, and LASCPC-01 cells, were counted using a hemocytometer or automated cell counting in triplicates. In some assessments, proliferation in NEPC organoids as measured with Cell Titer Glo reagent (Promega). Growth inhibition was determined relative to vehicle control.

For assay [2], the system named is histone acetylation (e.g., AcH3K9). Kind of assay: Histone H3K9 acetylation (AcH3K9), Western Blot, NCI-H1048 cells. It counts as cell-based, human. The note with it: FIG. 1. The method, then: In some embodiments, an assessment is performed using cells. In some embodiments, cells were treated with various compounds before assessing KAT2A and/or KAT2B levels, histone (e.g., H3K9) acetylation levels, cell states, growth, etc.
Western Blot: In some assessments, MOLM13, NCI-H1048, LASCPC-01 and NEPC organoid cells were treated with compounds at certain concentrations for certain periods of time, and cell pellets were lysed by adding 1-part 4×laemmli Sample buffer (e.g., Bio-Rad Catalog #1610747) along with Mercaptoethanol (e.g., Bio-Rad Catalog #1610710) according to manufacturer's instructions, and 1-part RIPA buffer with 2×protease and phosphatase inhibitor. The samples were sonicated 30% amplitude, 35 seconds on and 35 seconds off for 1 cycle and boiled at 95° C. for 5 minutes. 30-35 μL of samples were loaded on a 4-15% Criterion™ TGX Stain-Free™ Protein Gel (Bio-rad, 5678084). In some assessments, NCI-H1048 flash frozen tumor pieces were resuspended in RIPA buffer and homogenized on TissueLyser II with steel beads at 30 Hz for 3 minutes. Samples were then centrifuged at […] at 4° C. for 15 minutes. BCA protein determination was performed and samples normalized for 1.95 ug/uL. 19.5 uL were loaded and run on similar gels as cell pellets. […]

Assay [3] addresses KAT2A (Homo sapiens, UniProt Q92830). Kind of assay: KAT2A degradation, Western Blot (Jess), MOLM-13 cells. More on the design: degrader, Western blot. It counts as cell-based. In outline:
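MOLM-13 cells in RPMI 1640/20% FBS were treated with compound for 24 h at 37 °C. RIPA lysates (4 μg) were run on a capillary Western (Jess) with anti-KAT2A antibody and chemiluminescent detection. DC50 comes from percent protein reduction versus DMSO control.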

Where two headings read alike, the source gives them in different places. Some results are limits rather than exact numbers.

Chain of KAT2A (Q92830 whole entry): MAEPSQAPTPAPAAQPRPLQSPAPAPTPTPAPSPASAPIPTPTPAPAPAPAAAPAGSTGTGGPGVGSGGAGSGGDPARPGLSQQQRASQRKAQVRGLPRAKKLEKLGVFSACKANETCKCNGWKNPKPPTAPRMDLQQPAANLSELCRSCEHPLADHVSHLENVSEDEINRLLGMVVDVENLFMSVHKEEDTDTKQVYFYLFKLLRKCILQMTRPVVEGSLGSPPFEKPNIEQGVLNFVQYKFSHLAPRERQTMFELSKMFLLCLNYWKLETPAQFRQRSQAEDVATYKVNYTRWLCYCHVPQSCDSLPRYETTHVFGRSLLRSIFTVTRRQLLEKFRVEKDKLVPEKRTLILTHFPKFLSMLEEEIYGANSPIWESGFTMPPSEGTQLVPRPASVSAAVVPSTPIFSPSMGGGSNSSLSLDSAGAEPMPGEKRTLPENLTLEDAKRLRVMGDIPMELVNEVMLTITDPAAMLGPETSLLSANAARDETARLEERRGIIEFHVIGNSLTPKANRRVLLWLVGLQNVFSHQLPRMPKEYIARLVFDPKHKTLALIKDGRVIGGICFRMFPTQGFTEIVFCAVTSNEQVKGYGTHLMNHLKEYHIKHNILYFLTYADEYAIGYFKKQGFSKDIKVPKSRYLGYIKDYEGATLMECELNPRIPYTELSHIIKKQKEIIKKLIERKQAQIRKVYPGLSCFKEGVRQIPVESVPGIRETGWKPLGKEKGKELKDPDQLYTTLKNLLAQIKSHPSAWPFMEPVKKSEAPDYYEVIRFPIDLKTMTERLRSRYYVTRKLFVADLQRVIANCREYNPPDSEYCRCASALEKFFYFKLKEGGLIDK

For `CN1C[C@H](Nc2cnn(C)c(=O)c2Br)C[C@H](c2ccc(C(=O)N3CCC(CN4CCN(c5ccc6c(c5)CN(C5CCC(=O)NC5=O)C6=O)CC4)CC3)cc2)C1` (stereo partly drawn) [Compound 22, 3-(5-(4-((1-(4-((3R,5R)-5-((5-bromo-1-methyl-6-oxo-1,6-dihydropyridazin-4-yl)amino)-1-methylpiperidin-3-yl)benzoyl)piperidin-4-yl)methyl)piperazin-1-yl)-1-oxoisoindolin-2-yl)piperidine-2,6-dione], the GI50 in assay [1] (168 h, LASCPC-01, day 7, Cell Titer Glo, read-out: LASCPC GI50) came to 5.3 nM; in assay [1] (LASCPC-01, comparison table with Ref-1, read-out: Growth GI50) it was 5 nM. The “cell growth in vitro” value in assay [1] (LASCPC-01 cells, FIG. 3) is “inhibit cell growth in vitro and in vivo”. The “histone acetylation (e.g., AcH3K9) levels” value in assay [2] is listed as “reduce histone acetylation (e.g., AcH3K9) levels”. Moreover, the EC90 in assay [3] (24 h, MOLM-13, KAT2A, read-out: DC90 (the source's name)) was 0.6 nM. For the same compound, the DC50 is 0.11 nM in assay [3] (MOLM-13, KAT2A, read-out: DC50) and below 1 nM in assay [3] (MOLM-13 cells, KAT2A, 24 h, Western Blot, vs DMSO, read-out: KAT2A MOLM-13 DC50). The KAT2A levels result in assay [3] (MOLM-13 cells, FIG. 2) is “potently reduce KAT2A and KAT2B levels”.

The values are drawn from patent US20260306640A1, “TECHNOLOGIES TARGETING CELL STATES” (Auron Therapeutics, Inc., priority 2023, published 2026).
